In brackets after ≈: the same amount, converted by molar mass.
How the values were obtained:
[1] = target: T1, translocase MraY (phospho-MurNAc-pentapeptide translocase) (Escherichia coli, UniProt P0A6W3); assay: biochemical; set-up: continuous fluorescence enhancement assay, dansyl-UDPMurNAc-pentapeptide to dansyl-lipid I, membranes overexpressing E. coli MraY
T1 construct: membranes containing overexpressed E. coli MraY
T1 sequence (P0A6W3 1-360): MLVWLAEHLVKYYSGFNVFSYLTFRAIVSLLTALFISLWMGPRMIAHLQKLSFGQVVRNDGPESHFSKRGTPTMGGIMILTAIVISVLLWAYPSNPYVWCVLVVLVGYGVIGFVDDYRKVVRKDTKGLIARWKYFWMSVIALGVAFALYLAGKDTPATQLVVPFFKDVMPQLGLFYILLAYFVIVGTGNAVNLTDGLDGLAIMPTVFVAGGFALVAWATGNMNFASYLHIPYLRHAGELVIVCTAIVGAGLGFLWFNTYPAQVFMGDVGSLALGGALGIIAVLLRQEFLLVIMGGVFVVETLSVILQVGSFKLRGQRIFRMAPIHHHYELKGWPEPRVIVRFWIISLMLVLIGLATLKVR
Procedure: UDP-MurNAc-L-Ala-γ-D-Glu-L-Lys-D-Ala-D-Ala was prepared enzymatically using the methods described by Lloyd et al.,[32] and was converted to UDP-MurNAc-L-Ala-γ-D-Glu-L-Lys(Nε-dansyl)-D-Ala-D-Ala using the method of Brandish et al.[5] The MraY-catalysed reaction was monitored on a HIDEX Sense microplate reader 425–301 (λex 340 nm, λem 530 nm). To monitor the formation of dansyl-lipid I, membranes containing overexpressed E. coli MraY (15 μL of 0.6 mg mL^−1 stock) were incubated with UDP-MurNAc-L-Ala-γ-D-Glu-L-Lys(Nε-dansyl)-D-Ala-D-Ala (25 μM), undecaprenyl phosphate (30 μM, from stock solution in […] Tris buffer pH 7.5 containing 2 mM β-mercaptoethanol, 1 mM MgCl2, 20% glycerol, 0.5% Triton X-100), in 100 mM Tris buffer pH 7.5 containing 25 mM MgCl2, in a total volume of 100 μL. Test compounds were assayed at 200 μM final concentration, in triplicate assays, and compound 6d was assayed at 25–200 μM concentration in triplicate assays. Tunicamycin (20 μM) was used as a positive control for enzyme inhibition assays. Membranes containing overexpressed E. coli R288L mutant MraY were prepared as described in Rodolis et al.[16] Radiochemical assays were carried out using membranes containing overexpressed E. coli MraY as described in Mihalyi et al.[19] The set of analogues were assayed against particulate E. coli MraY from overexpressed membranes, using a fluorescence enhancement assay with fluorescent substrate UDPMurNAc-L-Ala-γ-D-Glu-L-Lys(ε-N-dansyl)-D-Ala-D-Ala, used previously to assay MraY.[5,16,17]

Escherichia coli K12 = system: T2, Escherichia coli K12; assay: microbe, parasite or virus in culture; set-up: broth microdilution growth inhibition, OD595, overnight; MIC50 = concentration reducing growth by 50%; details: MIC50, 50% growth reduction
T2 construct: K12
Procedure: (§1) P. fluorescens Pf-5, E. coli (TOP10 or C43), B. subtilis (W23) or M. flavus colonies were isolated from an agar plate and inoculated in 5 mL of Luria-Bertani broth overnight at 37 °C. E. coli C43/pET28a-mraY was grown in Luria-Bertani media containing 50 μg mL^−1 kanamycin. […] Serial dilutions of 125, 62.5, 31.25, 15.63, 7.82, 3.90, 1.95 and 0.97 μg mL^−1 test compound were prepared. 10 μL of water, MeOH and DMSO were added to separate wells to serve as a growth control. Each test condition was tested in triplicate. The 96-well plate was covered and incubated overnight at 30 or 37 °C. Optical density (OD595) was measured using a HIDEX Sense microplate reader 425–301. The inhibitor concentration which reduced the growth by 50% was measured as the MIC50 of the compound. The set of analogues were tested for antimicrobial activity against laboratory strains of E. coli K12, B. subtilis W23, and Pseudomonas fluorescens Pf-5.

[2] = system: T3, Pseudomonas fluorescens Pf-5; assay: microbe, parasite or virus in culture; set-up: broth microdilution growth inhibition, OD595, overnight; MIC50 = concentration reducing growth by 50%; details: PF5, MIC50, 50% growth reduction
T3 construct: Pf-5
Procedure: as §1

Bacillus subtilis W23 = system: T4, Bacillus subtilis W23; assay: microbe, parasite or virus in culture; set-up: broth microdilution growth inhibition, OD595, overnight; MIC50 = concentration reducing growth by 50%; details: MIC50, 50% growth reduction
T4 construct: W23
Procedure: as §1

[3] = target: T5, translocase MraY (phospho-MurNAc-pentapeptide translocase) (Escherichia coli, UniProt P0A6W3); assay: continuous fluorescence assay with dansyl-UDPMurNAc-pentapeptide, overexpressed membranes; format: biochemical
T5 construct: membranes containing overexpressed E. coli MraY
From the text: continuous fluorescence assay with dansyl-UDPMurNAc-pentapeptide, overexpressed membranes on translocase MraY (phospho-MurNAc-pentapeptide translocase) | highest enzyme inhibition shown by compound 6d.

[4] = target: T5, translocase MraY (phospho-MurNAc-pentapeptide translocase); assay: continuous fluorescence assay, % inhibition at […], overexpressed membranes; format: biochemical

Structure (SMILES)	inhibition at 200 µM ([1]; continuous fluorescence assay) [%]	MIC50 (Escherichia coli K12) [µg/mL]	MIC50 [2] [µg/mL]	MIC50 (Bacillus subtilis W23) [µg/mL]	IC50 [3] [µM]	inhibition at 200 µM ([1]; read-out: % MraY inhibition @200 μM) [%]	inhibition at 200 µM [4] [%]
CCCCCCCCn1c(=O)nc(NCCN)n(Cc2ccccc2)c1=O [6a]	36	16 (≈ 42.8 µM)	64 (≈ 171 µM)	8 (≈ 21.4 µM)	–	–	–
CCCCCCCCn1c(=O)nc(NCCN)n(Cc2ccc(OC)cc2)c1=O [6b]	50	16 (≈ 39.7 µM)	32 (≈ 79.3 µM)	8 (≈ 19.8 µM)	–	–	–
CCCCCCCCn1c(=O)nc(NCCN)n(Cc2cccc(OC)c2)c1=O [6c]	42	64 (≈ 159 µM)	> 256	32 (≈ 79.3 µM)	–	–	–
CCCCCCCCn1c(=O)nc(NCCN)n(Cc2ccccc2OC)c1=O [6d]	–	64 (≈ 159 µM)	> 256	32 (≈ 79.3 µM)	48	80	–
CCCCCCCCn1c(=O)nc(NCCN)n(Cc2ccc(F)cc2)c1=O [6e]	35	64 (≈ 163 µM)	128 (≈ 327 µM)	32 (≈ 81.7 µM)	–	–	–
CCCCCCCCn1c(=O)nc(NCCN)n(Cc2ccc(Cl)cc2)c1=O [6f]	15	8 (≈ 19.6 µM)	64 (≈ 157 µM)	4 (≈ 9.81 µM)	–	–	–
CCCCCCCCn1c(=O)nc(NCCN)n(Cc2ccc(Br)cc2)c1=O [6g]	–	16 (≈ 35.4 µM)	64 (≈ 141 µM)	16 (≈ 35.4 µM)	–	–	68
CCCCCCCCn1c(=O)nc(NCCN)n(Cc2ccc([N+](=O)[O-])cc2)c1=O [6h]	–	64 (≈ 153 µM)	> 256	32 (≈ 76.5 µM)	–	–	63
CCCCCCCCn1c(=O)nc(NCCN)n(Cc2ccc(C(F)(F)F)cc2)c1=O [6j]	–	64 (≈ 145 µM)	> 256	32 (≈ 72.5 µM)	–	–	59
CCCCCCCCn1c(=O)nc(NCCNC(=N)N)n(Cc2ccccc2)c1=O [7a]	41	16 (≈ 38.5 µM)	32 (≈ 77 µM)	8 (≈ 19.3 µM)	–	–	–
CCCCCCCCn1c(=O)nc(NCCNC(=N)N)n(Cc2ccc(OC)cc2)c1=O [7b]	48	16 (≈ 35.9 µM)	32 (≈ 71.8 µM)	2 (≈ 4.49 µM)	–	–	–
CCCCCCCCn1c(=O)nc(NCCNC(=N)N)n(Cc2cccc(OC)c2)c1=O [7c]	–	16 (≈ 35.9 µM)	32 (≈ 71.8 µM)	4 (≈ 8.98 µM)	–	–	57
CCCCCCCCn1c(=O)nc(NCCNC(=N)N)n(Cc2ccccc2OC)c1=O [7d]	–	16 (≈ 35.9 µM)	> 256	4 (≈ 8.98 µM)	–	–	57
CCCCCCCCn1c(=O)nc(NCCNC(=N)N)n(Cc2ccc(F)cc2)c1=O [7e]	–	16 (≈ 36.9 µM)	32 (≈ 73.8 µM)	4 (≈ 9.23 µM)	–	–	63
CCCCCCCCn1c(=O)nc(NCCNC(=N)N)n(Cc2ccc(Cl)cc2)c1=O [7f]	42	8 (≈ 17.8 µM)	32 (≈ 71.1 µM)	8 (≈ 17.8 µM)	–	–	–
CCCCCCCCn1c(=O)nc(NCCNC(=N)N)n(Cc2ccc(Br)cc2)c1=O [7g]	–	16 (≈ 32.4 µM)	256 (≈ 518 µM)	4 (≈ 8.09 µM)	–	–	51
CCCCCCCCn1c(=O)nc(NCCNC(=N)N)n(Cc2ccc([N+](=O)[O-])cc2)c1=O [7h]	–	64 (≈ 139 µM)	256 (≈ 556 µM)	32 (≈ 69.5 µM)	–	–	70
CCCCCCCCn1c(=O)nc(NCCNC(=N)N)n(Cc2ccc(C(F)(F)F)cc2)c1=O [7j]	43	4 (≈ 8.27 µM)	16 (≈ 33.1 µM)	1 (≈ 2.07 µM)	–	–	–
CCCCCCCCn1c(=O)nc(NCCO)n(Cc2ccccc2)c1=O [compound 11]	39	> 256	–	> 256	–	–	–
CCCCCCCCn1c(=O)nc(NCCNC(N)=O)n(Cc2ccccc2)c1=O [compound 12]	39	64 (≈ 154 µM)	–	128 (≈ 307 µM)	–	–	–
CCCCCCCCn1c(=O)nc(NCCN)n(C(CCc2ccccc2)c2ccccc2)c1=O (stereo not shown) [compound 13, 13]	–	256 (≈ 536 µM)	–	128 (≈ 268 µM)	–	–	64
